Molecular target: T1, human GR (Homo sapiens, UniProt P04150)
T1 construct: naturally expresses the human GR; endogenous in cells
T1 sequence (P04150 1-777): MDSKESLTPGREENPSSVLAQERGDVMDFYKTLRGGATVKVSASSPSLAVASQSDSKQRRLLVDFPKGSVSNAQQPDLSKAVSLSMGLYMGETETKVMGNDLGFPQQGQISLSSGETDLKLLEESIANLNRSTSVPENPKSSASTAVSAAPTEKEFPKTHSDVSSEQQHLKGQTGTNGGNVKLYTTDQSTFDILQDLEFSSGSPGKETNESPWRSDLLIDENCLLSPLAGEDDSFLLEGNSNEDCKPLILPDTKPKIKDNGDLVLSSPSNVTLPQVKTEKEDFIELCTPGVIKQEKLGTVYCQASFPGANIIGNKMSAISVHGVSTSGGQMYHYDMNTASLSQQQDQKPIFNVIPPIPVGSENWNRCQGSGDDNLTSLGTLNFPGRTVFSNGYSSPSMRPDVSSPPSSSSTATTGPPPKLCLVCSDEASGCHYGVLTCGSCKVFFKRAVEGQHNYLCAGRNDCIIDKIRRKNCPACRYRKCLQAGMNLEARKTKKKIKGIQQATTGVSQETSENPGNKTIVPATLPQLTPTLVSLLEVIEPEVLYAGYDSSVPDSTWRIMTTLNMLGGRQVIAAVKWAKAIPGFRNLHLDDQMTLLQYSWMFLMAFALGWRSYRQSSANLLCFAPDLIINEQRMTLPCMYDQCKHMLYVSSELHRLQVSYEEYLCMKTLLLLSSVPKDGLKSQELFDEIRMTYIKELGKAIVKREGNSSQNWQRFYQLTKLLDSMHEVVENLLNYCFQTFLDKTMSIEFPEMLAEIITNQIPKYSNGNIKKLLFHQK
Test: Trans-Activation Modulation of Glucocorticoid Receptor Assay (GRAMMER), MMTV-LUC reporter in A549 cells
Assay type: cell-based
Conditions: for Transactivation A549 Cells GRAMMER Emax (%): Emax relative to the activity obtained with 300 nM dexamethasone; for EC50: inflection point (IP), MMTV-LUC reporter, read-out: Transactivation A549 Cells GRAMMER IP; for Emax: A549, Emax relative to the activity obtained with 300 nM dexamethasone, read-out: Transactivation A549 Cells GRAMMER Emax (%)
From the text: This assay assesses the ability of test compounds to control transcription from the MMTV-LUC reporter gene in lung adenocarcinoma A549 cells or HeLa cells, a human […] cell line that naturally expresses the human GR. The assay measures induction of a modified MMTV LTR/promoter linked to the LUC reporter gene.
The routine transient assay consists of plating 7,000-25,000 cells/well of a white, clear-bottom 96-well plate. Alternatively, 384-well plates can be used at a cell concentration of 10,000/well. The media that the cells are plated in is “exponential growth medium” which consists of phenol red-free RPMI1640 containing 10% FBS, 4 mM L-glutamine, 20 mM HEPES, 10 ug/mL human insulin, and 20 ug/mL gentamicin. Incubator conditions are 37° C. and 5% CO2. The transfection is done in batch mode. The cells are trypsinized and counted to the right cell number in the proper amount of fresh media. It is then gently mixed with the FuGene6/DNA mix and plated onto the 96 or 384-well plate, all the wells receive 100 uL or 40 uL, respectively, of medium+lipid/DNA complex then incubated 37° C. overnight. The transfection cocktail consists of serum-free OptiMEM, FuGene6 reagent and DNA. The manufacturer's (Roche Biochemical) protocol for cocktail setup is as follows: The lipid to DNA ratio is approximately 2.5:1 and the incubation time is 20 min at room temperature. Sixteen to 24 hours after transfection, the cells are treated with dexamethasone to a final concentration of 10 nM as well as the compound of interest, such that final DMSO (vehicle) concentration is equal to or less than 1%. Each plate also contains samples that are treated with 10 nM dexamethasone alone, which is used as the 100% activity control. The cells are exposed to the compounds for 24 hours. After 24 hours, the cells are lysed by a Promega cell culture lysis buffer for approximately 30 min and then the luciferase activity in the extracts is assayed in the 96-well format luminometer. In 384-well format, Steady-Glo (Promega) or Steady-Lite (PerkinElmer) can be used by adding an equal volume of reagent to the media present in each well. Activity induced by 10 nM dexamethasone alone is set at 100% activity. Antagonist activity is calculated by determining the decrease in dexamethasone-induced activity in response to compound treatment relative to samples that were treated with dexamethasone alone. Results are expressed as % inhibition of 10 nM dexamethasone activity or as fold of 10 nM dexamethasone activity. This transactivation assay can be performed in an agonist and antagonist mode to identify these different activities.
Activity of test compounds is calculated as the Emax relative to the activity obtained with 300 nM dexamethasone. Activity of test compounds is calculated as the Emax relative to the activity obtained with 300 nM DEX. The exemplified tissue selective glucocorticoid receptor modulators of the present invention display agonist activity in this assay of greater than 5% and less than 100%, and maximal transactivation activity less then maximal transrepression activity. […]

SMILES	Transactivation A549 Cells GRAMMER Emax (%)	EC50 [nM]	Emax [%]
C[C@]12Cc3cnn(-c4ccc(F)cc4)c3C=C1CC[C@@]2(CO)CC(O)c1cccc(C(F)(F)F)c1 (single isomer, unassigned) [Example 7b]	55.8	39.3	–
Cc1ccc(C(O)C[C@]2(CO)CCC3=Cc4c(cnn4-c4ccc(F)cc4)C[C@@]32C)nc1 (stereo partly drawn) [Example 16, 2-[(4αS,5R)-1-(4-fluorophenyl)-5-(hydroxymethyl)-4α-methyl-1,4,4α,5,6,7-hexahydrocyclopenta[f]indazol-5-yl]-1-(5-methylpyridin-2-yl)ethanol]	–	18.4	38.3
C[C@]12Cc3cnn(-c4ccc(F)cc4)c3C=C1CC[C@@]2(CO)CC(O)c1ccncc1 (single isomer, unassigned) [Example 17a]	–	101	26.4
C[C@]12Cc3cnn(-c4ccccc4)c3C=C1CC[C@@]2(CO)CC(O)c1ccccn1 (single isomer, unassigned) [Example 23a]	–	49.7	39.4
C[C@]12Cc3cnn(-c4cccc(F)c4)c3C=C1CC[C@@]2(CO)CC(O)c1cccnc1 (single isomer, unassigned) [Example 27a]	6.8	357	–
Cc1cccc(C(O)C[C@]2(CO)CCC3=Cc4c(cnn4-c4ccc(F)cc4)C[C@@]32C)c1 (single isomer, unassigned) [Example 5b]	58.4	23.6	–
C[C@]12Cc3cnn(-c4ccc(F)cc4)c3C=C1CC[C@@]2(CO)CC(O)C(F)(F)F (single isomer, unassigned) [Example 28b]	42.3	107	–
CC(O)(C[C@]1(CO)CCC2=Cc3c(cnn3-c3ccc(F)cc3)C[C@@]21C)c1cccnc1 (single isomer, unassigned) [Example 25a]	–	291	7.9
C[C@]12Cc3cnn(-c4ccc(F)cc4)c3C=C1CC[C@@]2(CO)CC(O)c1ccncc1 (single isomer, unassigned) [Example 17b]	35.6	77.5	–
Cc1ccc(C(O)C[C@]2(CO)CCC3=Cc4c(cnn4-c4ccc(F)cc4)C[C@@]32C)cc1 (single isomer, unassigned) [Example 2b]	–	316	45.5
C[C@]12Cc3cnn(-c4ccc(F)cc4)c3C=C1CC[C@@]2(CO)CC(O)c1ccc(F)cn1 (single isomer, unassigned) [Example 22b]	74.3	64.2	–
C[C@]12Cc3cnn(-c4ccc(F)cc4)c3C=C1CC[C@@]2(CO)CC(O)c1cccnc1 (single isomer, unassigned) [Example 15a]	–	68.1	52.7
C[C@]12Cc3cnn(-c4ccc(F)cc4)c3C=C1CC[C@@]2(CO)CC(O)c1ccccn1 (single isomer, unassigned) [Example 1a]	83.9	5.6	–
C[C@]12Cc3cnn(-c4ccc(F)cc4)c3C=C1CC[C@@]2(CO)CC(O)c1ccc(F)cn1 (single isomer, unassigned) [Example 22a]	–	28.8	63.2
C[C@]12Cc3cnn(-c4ccc(F)cc4)c3C=C1CC[C@@]2(CO)CC(O)c1cccc(C(F)(F)F)c1 (single isomer, unassigned) [Example 7a]	–	58.8	60.2
COc1cccnc1C(O)C[C@]1(CO)CCC2=Cc3c(cnn3-c3cccc(F)c3)C[C@@]21C (single isomer, unassigned) [Example 26a]	24.8	144	–
CC(C)C(O)C[C@]1(CO)CCC2=Cc3c(cnn3-c3ccc(F)cc3)C[C@@]21C (single isomer, unassigned) [Example 14a]	–	479	25
C[C@]12Cc3cnn(-c4ccc(F)cc4)c3C=C1CC[C@@]2(CO)CC(O)C1CC1 (single isomer, unassigned) [Example 20b, 1-cyclopropyl-2-[(4αS)-1-(4-fluorophenyl)-5-(hydroxymethyl)-4α-methyl-1,4,4α,5,6,7-hexahydrocyclopenta[f]indazol-5-yl]ethanol]	11.3	808	–
C[C@]12Cc3cnn(-c4ccc(F)cc4)c3C=C1CC[C@@]2(CO)CC(O)c1ncccc1F (single isomer, unassigned) [Example 10a]	–	23.7	56.6
C[C@]12Cc3cnn(-c4ccc(F)cc4)c3C=C1CC[C@@]2(CO)CC(O)c1ccccc1 (single isomer, unassigned) [Example 13a]	–	8.8	73.1
Cc1ccc(C(O)C[C@]2(CO)CCC3=Cc4c(cnn4-c4ccc(F)cc4)C[C@@]32C)cc1 (single isomer, unassigned) [Example 2a]	46.6	485	–
COc1cccnc1C(O)C[C@]1(CO)CCC2=Cc3c(cnn3-c3cccc(F)c3)C[C@@]21C (single isomer, unassigned) [Example 26b]	4.3	653	–
C[C@]12Cc3cnn(-c4ccc(F)cc4)c3C=C1CC[C@@]2(CO)CC(O)c1ccccc1 (single isomer, unassigned) [Example 13b]	57.5	7.2	–
COc1ccc(C(O)C[C@]2(CO)CCC3=Cc4c(cnn4-c4ccc(F)cc4)C[C@@]32C)nc1 (single isomer, unassigned) [Example 24a]	–	470	7.6
C[C@]12Cc3cnn(-c4ccc(F)cc4)c3C=C1CC[C@@]2(CO)CC(O)c1ccccc1F (stereo partly drawn) [Example 4, 1-(2-fluorophenyl)-2-[(4αS,5R)-1-(4-fluorophenyl)-5-(hydroxymethyl)-4α-methyl-1,4,4α,5,6,7-hexahydrocyclopenta[f]indazol-5-yl]ethanol]	–	39.7	80.3
CC(C)C(O)C[C@]1(CO)CCC2=Cc3c(cnn3-c3ccc(F)cc3)C[C@@]21C (single isomer, unassigned) [Example 14b]	32.6	206	–

Source: patent US20120095055A1, “HEXAHYDROCYCLOPENTYL[f]INDAZOLE 5-HYDROXYMETHYL ETHANOLS AND DERIVATIVES THEREOF AS SELECTIVE GLUCOCORTICOID RECEPTOR MODULATORS” (Merck Sharp & Dohme, Corp., priority 2009, published 2012)
